The numbers were not newly measured in patent publication US10966913B2, “Cosmetic use of spiculisporic acid as a deodorant active agent” (L'OREAL, priority 2014, dated 2021), which cites them from elsewhere.

For this data set the following is noted: room temperature.

As to `CCCCCCCCCCC(C(=O)O)C1(C(=O)O)CCC(=O)O1` (stereo not drawn) [spiculisporic acid, 4,5-dicarboxy-4-pentadecanolide], the solubility in ethanol result is “soluble”, the “solubility in fatty substances” value is on record as “insoluble” and the solubility in water result was “insoluble”.
